Laboratory results reported in patent US9593305B2, “Differentiation of pluripotent stem cells” (Janssen Biotech, Inc., priority 2008, dated 2017).

What was measured:
Type in all cases: cell-based
[1] = tested on: H1 human embryonic stem cells; assay: Secondary assay: compound combined with individual growth factors or small molecules, no activin A (Example 5, Table 4); conditions: growth factor 50 ng/ml combined with 2.5 μM compound and Wnt3a, no activin A
Procedure: Clusters of H1 human embryonic stem cells were grown on reduced growth factor […]™ (Invitrogen; Cat #356231)-coated tissue culture plastic. Cells were passaged using collagenase (Invitrogen; Cat #Cat #17104-019) treatment and gentle scraping, washed to remove residual enzyme, and plated with even dispersal at a ratio of 1:1 (surface area) on reduced growth factor […]™-coated 96-well black plates (Packard ViewPlates; PerkinElmer; Cat #6005182) using volumes of 100 μl/well. Cells were allowed to attach as clusters and then recover log phase growth over a 1 to 3 day period, feeding daily with MEF conditioned medium supplemented with 8 ng/ml bFGF (R&D Systems; Cat #233-FB). Plates were maintained at 37° C., 5% CO2 in a humidified box throughout the duration of assay.
Other agents tested were purchased as follows: BMP-7 (Sigma; Cat #B1434), LY294002 (Cayman; Cat 70920), PD98059, U0126, U0124 (EMD Biosciences; Cat #453710), muscimol (Tocris; Cat #0289), biuculline (Tocris; Cat #0130), sodium butyrate (Sigma; Cat #B5887). All growth factors were solubilized in PBS with 0.1% BSA (Sigma; Cat #A7888) and stored frozen at −80° C. Small molecules were solubilized in 100% DMSO (Sigma; Cat #D2650) and stored frozen at −80° C. The compounds were available as 5 mM stocks in 96-well plate format, solubilized in 100% DMSO and stored at −80° C. The compounds of the present invention were further diluted to an intermediate concentration of 0.2 mM in 50 mM HEPES (Invitrogen; Cat #15630-080), 20% DMSO and stored at 4° C. All growth factors and inhibitors were prepared in a deep well, 96-well polypropylene plate, diluted to 5× intermediate stocks in DMEM:F12 base medium at the beginning of assay and stored at 4° C.
A secondary screening assay was conducted, testing in triplicate and feeding on alternate days over the four-day assay timeframe. Assays were initiated by aspirating culture medium from each well followed by three washes in PBS to remove residual growth factors and serum. Test volumes of 80 μl per well were added back containing DMEM:F12 base medium (Invitrogen; Cat #11330-032) supplemented with 0.625% FCS (HyClone; Cat #SH30070.03), 25 ng/ml Wnt3a (R&D Systems), and 3.125 μM compound plus 20 μl 5× stock of growth factor or small molecule to yield a final concentration of 0.5% FCS, 20 ng/ml Wnt3a, and 2.5 μM compound. […] Final assay concentrations of small molecules tested were as follows: muscimol (20 μM), PD98059 (1 μM), LY294002 (2.5 μM), 00124 (1 μM), U0126 (1 μM), sodium butyrate (0.5 mM). Positive control wells (100 μl/well) contained the same base medium supplemented with 0.5% FCS, 20 ng/ml Wnt3a and 100 ng/ml activin A. Negative control wells (100 μl/well) contained the same base medium with 0.5% FCS and 20 ng/ml Wnt3a, omitting activin A.
On day 3, wells were aspirated and fed with 80 μl DMEM:F12 base medium supplemented with 2.5% FCS (HyClone) and 3.125 μM cyclic aniline-pyridinotriazine compound plus 20 μl 5× stock of growth factors or small molecules per well to yield a final concentration of 2% FCS and 2.5 μM compound (omitting Wnt3a) and as denoted on day one for all remaining growth factors or small molecules. Positive control wells (100 μl/well) contained the same base medium supplemented with 2% FCS and 100 ng/ml activin A, omitting Wnt3a. Negative control wells (100 μl/well) contained the same base medium with 2% FCS, omitting both activin A and Wnt3a.
At the conclusion of four-days of culture, assay plates were washed twice with PBS, fixed with 4% paraformaldehyde (Alexis Biochemical; Cat #ALX-350-011) at room temperature for 20 minutes, then washed three times with PBS and permeabilized with 0.5% Triton X-100 (Sigma; Cat #T8760-2) for 20 minutes at room temperature. Cells were washed again three times with PBS and blocked with 4% chicken serum (Invitrogen; Cat #16110082) in PBS for 30 minutes at room temperature.

[2] = tested on: H1 human embryonic stem cells; assay: Single-cell monolayer assay with EGF/FGF4, serum free, no activin A (Example 10, Table 10); conditions: No AA (with Wnt3a), FGF none
Procedure: Briefly, clusters of H1 human embryonic stem cells were grown on reduced growth factor […]™ (Invitrogen; Cat #356231)-coated tissue culture plastic. Cultures were treated with Accutase (Sigma; Cat #A6964), using equivalent volumes of […] surface area for 5 minutes at 37° C., then gently resuspended, pelleted by centrifugation, and resuspended in MEF conditioned medium for counting. For assay seeding, cells were plated at 50,000 cells/cm^2 on reduced growth factor […]™-coated 96-well black plates (Packard ViewPlates; Cat #6005182) using volumes of 100 μl/well. Cells were allowed to attach and recover log phase growth over a 3 to 5 day period, feeding daily with MEF conditioned medium supplemented with 8 ng/ml bFGF (R&D Systems; Cat #233-FB). Plates were maintained at 37° C., 5% CO2 in a humidified box throughout the duration of assay.
Stocks of EGF and FGF4 were prepared in a 96-well polypropylene plate (Corning, Inc.; Cat #3960). Compound 22 was available as a 5 mM stock solubilized in 100% DMSO (Sigma; Cat #D2650) and stored at −80° C. Assays were initiated by aspirating culture medium from each well followed by three washes in PBS to remove residual growth factors and serum. […]
On the second day of assay, wells were again aspirated and fed with 80 μl per well were added back containing RPMI 1640 base medium supplemented with 2.5% fatty acid free BSA, 10 ng/ml bFGF, and 3.125 μM Compound 22 plus 20 μl 5× stock of growth factors to yield a final concentration of 2% fatty acid free BSA, 8 ng/ml bFGF and 2.5 μM Compound 22 in assay. Positive control wells contained the same base medium supplemented with 2% fatty acid free BSA, 8 ng/ml bFGF and 100 ng/ml recombinant human activin A. Negative control samples contained the same base medium supplemented with 2% fatty acid free BSA and 8 ng/ml bFGF but omitted treatment with activin A.
At the conclusion of four-days of culture, assay plates were washed twice with PBS, fixed with 4% paraformaldehyde (Alexis Biochemical; Cat #ALX-350-011) at room temperature for 20 minutes, then washed three times with PBS and permeabilized with 0.5% Triton X-100 (Sigma; Cat #T8760-2) for 20 minutes at room temperature. Cells were washed again three times with PBS and blocked with 4% chicken serum (Invitrogen; Cat #16110082) in PBS for 30 minutes at room temperature. Primary antibody (goat anti-human SOX17; R&D Systems; cat #AF1924) was diluted 1:100 in 4% chicken serum and added to each well for one hour at room temperature. Alexa Fluor 488 conjugated secondary antibody (chicken anti-goat IgG; Molecular Probes; Cat #AZ1467) was diluted 1:200 in PBS and added to each sample well after washing three times with PBS. To counterstain nuclei, 4 μg/ml Hoechst 33342 (Invitrogen; Cat #H3570) was added for ten minutes at room temperature. Plates were washed once with PBS and left in 100 μl/well PBS for imaging.
Imaging was performed using an IN Cell Analyzer 1000 (GE Healthcare) utilizing the 51008bs dichroic for cells stained with Hoechst 33342 and Alexa Fluor 488. Exposure times were optimized from positive control wells and from untreated negative control wells stained with secondary antibody alone. Images from 15 fields per well were acquired to compensate for any cell loss during the bioassay and subsequent staining procedures. Measurements for total cell number and total SOX17 intensity were obtained from each well using IN Cell Developer Toolbox 1.7 (GE Healthcare) software. Segmentation for the nuclei was determined based on gray-scale levels (baseline range 100-300) and nuclear size. Averages and standard deviations were calculated for each replicate data set. Total SOX17 protein expression was reported as total intensity or integrated intensity, defined as total fluorescence of the cell multiplied by the area of the cell. Background was eliminated based on acceptance criteria of gray-scale ranges between 200 to 3500. […]

[3] = tested on: H1 human embryonic stem cells; assay: Analog screening with GDF-8 and growth factor/agonist pool (Example 8, Tables 7 and 8)
How it was run: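 H1 hESC clusters, washed free of growth factors, fed on alternate days over 4 days with DMEM:F12, 0.5% FCS, 2.5 μM compound, 25 ng/ml GDF-8 plus a 50 ng/ml growth-factor pool. Fixed cells immunostained for SOX17 and imaged; total SOX17 intensity normalised to positive control.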

[4] = tested on: H1 human embryonic stem cells; assay: Analogue screening in combination with only GDF-8, SOX17 (Example 21, Tables 18 and 19); set-up: Sox17 Expression: % of positive control / Cell Number: % of positive control: tested at 2.5 µM; conditions: compound in combination with GDF8; for Cell Number: Average Total Cell Number / Sox17 Expression: Average Total Intensity: four assay plates; for Cell Number: % of positive control / Sox17 Expression: % of positive control: relative to Activin A/Wnt3a of the same plate;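 on all read-outs here: cells treated with 200 ng/ml GDF-8 in DMEM:F12 with FCS over four days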
How it was run: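 H1 human ES cells treated four days with 200 ng/ml GDF-8 plus 2.5 μM compound (day 1, 0.5% FCS), GDF-8 alone in 2% FCS on day 3; triplicates. Fixed cells immunostained for SOX17 with Hoechst counterstain, imaged at 15 fields/well; total SOX17 intensity normalized to activin A/Wnt3a positive control.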

[5] = Plate 1, compound + EGF, FGF, PDGF-A, VEGF, PDGF-D, muscimol, GDF8
[6] = Plate 1, compound + EGF, FGF, PDGF-A, VEGF, PDGF-D, muscimol, GDF8, positive control Activin A/Wnt3a
[7] = Table 8: hits with greater than 25% activity of the positive control, with GDF-8 and growth factors/agonists

EGF: growth factor purchased from R&D Systems
increase in SOX17 expression (% of the activin A/Wnt3a control) [1]: 34% | Cell Number, % of positive control ([2]; EGF(50 ng/ml)): 43.85% | Cell Number, Average Total Cell Number ([2]; EGF(50 ng/ml)): 5558 | Sox17 Expression, % of positive control ([2]; EGF(50 ng/ml)): 18.44% | Sox17 Expression, Average Total Intensity ([2]; EGF(50 ng/ml)): 5.01E+07 | Cell Number, % of positive control ([2]; EGF(100 ng/ml)): 53.79% | Cell Number, Average Total Cell Number ([2]; EGF(100 ng/ml)): 6818 | Sox17 Expression, % of positive control ([2]; EGF(100 ng/ml)): 23.62% | Sox17 Expression, Average Total Intensity ([2]; EGF(100 ng/ml)): 6.42E+07

CCN1CCCc2cccc(c2)-c2ncnc(n2)Nc2ccccc2CNC(=O)C1 [Compound 32, 15-Ethyl-13,14,15,16,18,19-hexahydro-1H-6,2-(azeno)-7,11-(metheno)-1,3,5,15,18-benzopentaazacyclohenicosin-17(12H)-one]
Cell Number, Average Total Cell Number [3, 5]: 8066 | Sox17 Expression, Average Total Intensity [3, 5]: 9.29E+07 | Cell Number, % of positive control [3, 6]: 60.2 % of positive control | Sox17 Expression, % of positive control [3, 6]: 37.1 % of positive control | Cell Number, % of positive control [3, 7]: 60.2 % of positive control | Sox17 Expression, % of positive control [3, 7]: 37.1 % of positive control | Sox17 Expression, Average Total Intensity [3, 7]: 9.29E+07 | Cell Number: Average Total Cell Number [4]: 4338 | Sox17 Expression: Average Total Intensity [4]: 3.63E+07 | Cell Number: % of positive control [4]: 28.9% | Sox17 Expression: % of positive control [4]: 10.5%

O=C1CCN2CCN(CC2)Cc2cc(Cl)cc(c2)Nc2ncnc(n2)-c2ccc(F)c(c2)CCCN1 [Compound 24, 5-Chloro-17-fluoro-1,8,10,12,22,26,32-heptaazapentacyclo[24.2.2.1˜3,7˜0.1˜9,13˜0.1˜14,18˜]tritriaconta-3(33), 4,6,9(32), 10,12,14(31), 15,17-nonaen-23-one]
Cell Number, Average Total Cell Number [3, 5]: 12714 | Sox17 Expression, Average Total Intensity [3, 5]: 2.46E+08 | Cell Number, % of positive control [3, 6]: 94.9 % of positive control | Sox17 Expression, % of positive control [3, 6]: 98.2 % of positive control | Cell Number, % of positive control [3, 7]: 94.9 % of positive control | Sox17 Expression, % of positive control [3, 7]: 98.2 % of positive control | Sox17 Expression, Average Total Intensity [3, 7]: 2.46E+08 | Cell Number: Average Total Cell Number [4]: 5012 | Sox17 Expression: Average Total Intensity [4]: 2.64E+07 | Cell Number: % of positive control [4]: 33.4% | Sox17 Expression: % of positive control [4]: 7.7%
